pIC50: −log10 of the molar value. {GalNAc3} = trivalent GalNAc cluster through an NHC6 amino-hexyl linker
Experiments:
[1] = system: ahsa1; experiment: Dose-response screen in primary mouse hepatocytes, ahsa1-specific probe (standard control); type: cell-based; settings: 72 hours
Procedure: (§1) Dose-response screens for GalNAc-conjugated siRNAs (mTTR1-PDoV3-GalNAc3, mTTR1-PDoV2-GalNAc3, mTTR2-GalNAc3 positive control, mTTR2-GalNAc3 positive control) were performed using primary mouse hepatocytes for target TTR. The cell density was 40000 cells/96 well. The concentration was from: highest at 1 μM in 5-fold dilutions to lowest at […]. Cells were transfected by direct incubation for 72 hours. The data was read out by bDNA assay. The data was analyzed by XLfit software. TTR signal normalized to gapdh, mean of quadruplicates, mock-treated cells set=1, Xlfit for calculation of IC50 values. The primary hepatocytes used were purchased from Primacyt, Germany (lot MH181219), derived from CD 1 mice, and treated with siRNA right after thawing.
(§2) The two siRNAs were both conjugated to trivalent GalNAc clusters at the 3′ end (mTTR2 siRNA sequence was a fully modified sequence and 4 more additional PS linkages modification on the oligonucleotides than mTTR1. (Nair, et al., J. Am. Chem. Soc. 136:16958-16961(2014). Aha1-GaNAc3 positive control was used as a standard control, targeted to the housekeeper ahsa1. This was used as both negative and positive control, hybridizing the cell lysates either to the screening target or to an ahsa1-specific probe. Table e1 lists the sequences of the 2 control siRNAs and the structure of the GalNAc cluster. Table e1. Control siRNA sequence and targets. (Images discloses SEQ ID NOS 36, 47-48, 59, and 47-48, respectively, in order of appearance)

[2] = system: TTR; experiment: Dose-response screen of GalNAc-conjugated siRNAs in primary mouse hepatocytes, bDNA read-out; type: cell-based; settings: direct incubation 72 hours
Procedure: as §1, §2

Row | Substance | pIC50 [1] | IC80 [1] [nM] | Max. KD [1] [%] | IC80 ([2]; TTR signal normalized to gapdh) [nM] | pIC50 ([2]; TTR signal normalized to gapdh, Xlfit) | Max. KD ([2]; highest concentration 1 μM) [%]
1 | aha1-GalNAc3 positive control: standard control siRNA targeted to the housekeeper ahsa1, conjugated to trivalent GalNAc cluster at 3′ end (SEQ ID NO: 41/42) (chain 1 UCUCGUGGCCUUAAUGAAA; chain 2 UUUCAUUAAGGCCACGAGAUU; chain 1: linkages s2 o16 (s phosphorothioate, o phosphodiester), 3' {GalNAc3}, sugars by position and methylation of C not given here; chain 2: linkages s2 o16 s2 (s phosphorothioate, o phosphodiester), sugars by position and methylation of C not given here; further chemistry not fully specified) | 8.82 | 5.9 | 96 | – | – | –
2 | mTTR2-GalNAc3 positive control: fully modified siRNA against mouse TTR conjugated to trivalent GalNAc cluster at the 3′ end (SEQ ID NO: 39/40; Nair et al.) (chain 1 AACAGUGUUCUUGCUCUAUAA; chain 2 UUAUAGAGCAAGAACACUGUUUU; chain 1: linkages s2 o18 (s phosphorothioate, o phosphodiester), 3' {GalNAc3}, sugars by position and methylation of C not given here; chain 2: linkages s2 o18 s2 (s phosphorothioate, o phosphodiester), sugars by position and methylation of C not given here; fully modified, Nf 2'-fluoro, further chemistry not fully specified) | – | – | – | 0.3 | 10.00 | 96
